PubChem BioAssay (NCI)
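Cultured in 96-well plates, cells were exposed to test compound for 48 hours across five concentrations. TGI: total growth inhibition.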

Tests used:
Assay in all cases: inhibition of tumour cell growth, NCI panel, 48 h
NCI-H226 lung = system: NCI-H226 lung
SNB-19 CNS = system: SNB-19 CNS
PC-3 prostate = system: PC-3 prostate
A549 NSCLC = system: A549 NSCLC
HOP-62 NSCLC = system: HOP-62 NSCLC
MOLT-4 leukemia = system: MOLT-4 leukemia
SF-539 CNS = system: SF-539 CNS
SF-295 CNS = system: SF-295 CNS
SK-MEL-2 melanoma = system: SK-MEL-2 melanoma
786-0 renal = system: 786-0 renal
M14 melanoma = system: M14 melanoma
U251 CNS = system: U251 CNS
SW-620 colon = system: SW-620 colon
SK-OV-3 ovarian = system: SK-OV-3 ovarian
MDA-N = system: MDA-N
SK-MEL-5 melanoma = system: SK-MEL-5 melanoma
SN12C renal = system: SN12C renal
OVCAR-8 ovarian = system: OVCAR-8 ovarian
HL-60(TB) leukemia = system: HL-60(TB) leukemia
SK-MEL-28 melanoma = system: SK-MEL-28 melanoma
SF-268 CNS = system: SF-268 CNS
RXF 393 renal = system: RXF 393 renal
NCI-H23 lung = system: NCI-H23 lung
HCT-116 colon = system: HCT-116 colon
HS 578T breast = system: HS 578T breast
DU-145 prostate = system: DU-145 prostate
MCF7 breast = system: MCF7 breast
NCI-H460 lung = system: NCI-H460 lung
KM12 colon = system: KM12 colon
OVCAR-3 ovarian = system: OVCAR-3 ovarian
MDA-MB-231 breast = system: MDA-MB-231 breast
K-562 leukemia = system: K-562 leukemia
IGROV1 ovarian = system: IGROV1 ovarian
NCI-H522 lung = system: NCI-H522 lung
NCI/ADR-RES ovarian = system: NCI/ADR-RES ovarian
RPMI-8226 leukemia = system: RPMI-8226 leukemia
HT29 colon = system: HT29 colon
SR leukemia = system: SR leukemia
BT-549 breast = system: BT-549 breast
SNB-75 CNS = system: SNB-75 CNS
CAKI-1 renal = system: CAKI-1 renal
UACC-62 melanoma = system: UACC-62 melanoma
OVCAR-4 ovarian = system: OVCAR-4 ovarian
HCT-15 colon = system: HCT-15 colon
MALME-3M melanoma = system: MALME-3M melanoma
EKVX NSCLC = system: EKVX NSCLC
ACHN renal = system: ACHN renal
UACC-257 melanoma = system: UACC-257 melanoma
HOP-92 NSCLC = system: HOP-92 NSCLC
LOX IMVI melanoma = system: LOX IMVI melanoma
A498 renal = system: A498 renal
COLO 205 colon = system: COLO 205 colon
OVCAR-5 ovarian = system: OVCAR-5 ovarian
CCRF-CEM leukemia = system: CCRF-CEM leukemia
T-47D breast = system: T-47D breast
MDA-MB-435 = system: MDA-MB-435
UO-31 renal = system: UO-31 renal
TK-10 renal = system: TK-10 renal

COc1cc(-c2nc3ccc(N4CCN(C)CC4)cc3[nH]2)c(OC)c2[nH]c(CO)nc12 was tested, and the TGI (NCI-H226 lung) was > 100 µM, the TGI (SNB-19 CNS) was > 100 µM and the TGI (PC-3 prostate) was > 100 µM. The TGI (A549 NSCLC) was > 100 µM, the TGI (HOP-62 NSCLC) was > 100 µM and the TGI (MOLT-4 leukemia) was > 100 µM. The TGI (SF-539 CNS) was > 100 µM, the TGI (SF-295 CNS) was > 100 µM and the TGI (SK-MEL-2 melanoma) was > 100 µM. The TGI (786-0 renal) was > 100 µM, the TGI (M14 melanoma) was > 100 µM and the TGI (U251 CNS) was > 100 µM. The TGI (SW-620 colon) was > 100 µM, the TGI (SK-OV-3 ovarian) was > 100 µM and the TGI (MDA-N) was > 100 µM. For the same molecule, the TGI (SK-MEL-5 melanoma) was > 100 µM, the TGI (SN12C renal) was > 100 µM and the TGI (OVCAR-8 ovarian) was > 100 µM. For the same molecule, the TGI (HL-60(TB) leukemia) was 37.2 µM, the TGI (SK-MEL-28 melanoma) was > 100 µM and the TGI (SF-268 CNS) was > 100 µM. The TGI (RXF 393 renal) was > 100 µM, the TGI (NCI-H23 lung) was > 100 µM and the TGI (HCT-116 colon) was > 100 µM. The TGI (HS 578T breast) was > 100 µM, the TGI (DU-145 prostate) was > 100 µM and the TGI (MCF7 breast) was > 100 µM. For the same molecule, the TGI (NCI-H460 lung) was > 100 µM, the TGI (KM12 colon) was > 100 µM and the TGI (OVCAR-3 ovarian) was > 100 µM. For the same molecule, the TGI (MDA-MB-231 breast) was > 100 µM, the TGI (K-562 leukemia) was > 100 µM and the TGI (IGROV1 ovarian) was > 100 µM. The TGI (NCI-H522 lung) was > 100 µM, the TGI (NCI/ADR-RES ovarian) was > 100 µM and the TGI (RPMI-8226 leukemia) was > 100 µM. The TGI (HT29 colon) was > 100 µM, the TGI (SR leukemia) was > 100 µM and the TGI (BT-549 breast) was > 100 µM. The TGI (SNB-75 CNS) was > 100 µM, the TGI (CAKI-1 renal) was > 100 µM and the TGI (UACC-62 melanoma) was > 100 µM. For the same molecule, the TGI (OVCAR-4 ovarian) was > 100 µM, the TGI (HCT-15 colon) was > 100 µM and the TGI (MALME-3M melanoma) was > 100 µM. The TGI (EKVX NSCLC) was > 100 µM, the TGI (ACHN renal) was > 100 µM and the TGI (UACC-257 melanoma) was > 100 µM. For the same molecule, the TGI (HOP-92 NSCLC) was > 100 µM, the TGI (LOX IMVI melanoma) was > 100 µM and the TGI (A498 renal) was > 100 µM. For the same molecule, the TGI (COLO 205 colon) was > 100 µM, the TGI (OVCAR-5 ovarian) was > 100 µM and the TGI (CCRF-CEM leukemia) was 44.5 µM. For the same molecule, the TGI (T-47D breast) was > 100 µM, the TGI (MDA-MB-435) was > 100 µM and the TGI (UO-31 renal) was > 100 µM. For the same molecule, the TGI (TK-10 renal) was > 100 µM.

For COc1ccc(C(=O)/C=C/c2ccc(Oc3cc(C(=O)/C=C/c4ccc(O)cc4)c(O)cc3OC)cc2)c(O)c1, the TGI (SNB-19 CNS) was > 100 µM, the TGI (PC-3 prostate) was > 100 µM and the TGI (A549 NSCLC) was > 100 µM. It also gave a TGI (HOP-62 NSCLC) of 49.2 µM, a TGI (SF-539 CNS) of 5.26 µM and a TGI (SF-295 CNS) of 40.2 µM. The TGI (SK-MEL-2 melanoma) was 46 µM, the TGI (786-0 renal) was 7.9 µM and the TGI (M14 melanoma) was 61.2 µM. For the same molecule, the TGI (U251 CNS) was > 100 µM, the TGI (SW-620 colon) was > 100 µM and the TGI (SK-OV-3 ovarian) was 96.4 µM. The TGI (MDA-N) was > 100 µM, the TGI (SK-MEL-5 melanoma) was 18.7 µM and the TGI (SN12C renal) was > 100 µM. The TGI (OVCAR-8 ovarian) was 9.83 µM, the TGI (HL-60(TB) leukemia) was > 100 µM and the TGI (SK-MEL-28 melanoma) was 8.15 µM. For the same molecule, the TGI (SF-268 CNS) was > 100 µM, the TGI (RXF 393 renal) was 6.96 µM and the TGI (NCI-H23 lung) was 18.1 µM. For the same molecule, the TGI (HCT-116 colon) was 3.96 µM, the TGI (HS 578T breast) was > 100 µM and the TGI (DU-145 prostate) was > 100 µM. For the same molecule, the TGI (MCF7 breast) was > 100 µM, the TGI (NCI-H460 lung) was > 100 µM and the TGI (KM12 colon) was 7.83 µM. For the same molecule, the TGI (OVCAR-3 ovarian) was 32.2 µM, the TGI (MDA-MB-231 breast) was 9.8 µM and the TGI (K-562 leukemia) was > 100 µM. The TGI (IGROV1 ovarian) was 6.13 µM, the TGI (NCI-H522 lung) was 10.5 µM and the TGI (NCI/ADR-RES ovarian) was 11 µM. It also gave a TGI (RPMI-8226 leukemia) of 4.7 µM, a TGI (HT29 colon) of 5.13 µM and a TGI (SR leukemia) of 5.73 µM. The TGI (BT-549 breast) was > 100 µM, the TGI (SNB-75 CNS) was 18.2 µM and the TGI (CAKI-1 renal) was 68.4 µM. For the same molecule, the TGI (UACC-62 melanoma) was 11.2 µM, the TGI (OVCAR-4 ovarian) was 18 µM and the TGI (HCT-15 colon) was 6.62 µM. For the same molecule, the TGI (MALME-3M melanoma) was 59.8 µM, the TGI (EKVX NSCLC) was 23.5 µM and the TGI (ACHN renal) was 6.85 µM. For the same molecule, the TGI (UACC-257 melanoma) was > 100 µM, the TGI (HOP-92 NSCLC) was 38.4 µM and the TGI (LOX IMVI melanoma) was 5.05 µM. It also gave a TGI (A498 renal) of 6.26 µM, a TGI (COLO 205 colon) of 15.4 µM and a TGI (OVCAR-5 ovarian) of 26 µM. The TGI (CCRF-CEM leukemia) was > 100 µM, the TGI (T-47D breast) was 66.9 µM and the TGI (MDA-MB-435) was > 100 µM. It also gave a TGI (UO-31 renal) of 11.3 µM and a TGI (TK-10 renal) of 58 µM.
